Experimental data: US20030091533A1, “Regulation of mononuclear phagocyte stimulation” (priority 2001, published 2003)

Key:
LPS-stimulated PBM [1] = test: Intracellular oxidative burst, DCFH oxidation assay, PBM; assay type: cell-based, human
Method: Intracellular oxidative capacity was assessed essentially as described by Bass et al., J. Immunol., 130:1910-1917 (1983) (incorporated herein by reference) as described infra.
Cells (0.2×10^6) were preincubated for 24 hour with IL-9 or IL-4 (20 ng/ml) in the presence of IFN-γ (200 U/ml) before stimulation for 20 hour with LPS (1 μg/ml). The intracellular oxidative capacity was measured through the DCFH oxidation assay as describe herein. FIG. 3 depicts the effect of IFN-γ on the inhibition mediated by IL-9 and IL-4 on the oxidative burst in LPS-stimulated PBM (A) and AM (B).
Table 1. Specific blockade of the IL-9 inhibitory effect on oxidative burst in LPS-15 stimulated PBM and AM by anti-hIL-9R mAb. Cells (0.2×10^6) were preincubated with neutralizing mAb against hIL-9R (AH9R7, 10 μg/ml), or with control mIgG2b (10 μg/ml), 1 hour before incubation with IL-9 (20 ng/ml) for 24 hour without removing mAb, and stimulated by LPS (1 μg/ml) for 20 h. Intracellular oxidative capacity was evaluated by the DCFH oxidation assay. Data are means±SEM obtained from three experiments, triplicate conditions being performed in each experiment. *P<0.001 compared with cells preincubated with IL-9 (with or without control mIgG2b).
Cells (0.2×10^6) were preincubated with neutralizing mAb, either against TGF-β1 (30 μg/ml) or against IL-10Rβ (30 μg/ml) or with control mIgG1 (30 μg/ml), 2 hour before incubation with IL-9 (20 ng/ml) for 24 hour without removing the mAb, and stimulated with LPS (1 μg/ml) for 20 h. Intracellular oxidative capacity was evaluated by the DCFH oxidation assay.
Intracellular oxidative capacity was assessed as described by Bass et al., (Bass et al., J. Immunol. 130:1910-1917 (1983)). Briefly, the PBM and AM samples were distributed in 96-well plates with flat bottoms (Falcon) to provide 0.2×10^6cells/well. The cells were preincubated for 24 hour at 37° C., 5% CO2 with cytokines (200 u/ml for IFN-y, 20 ng/ml for IL-9 and 20 ng/ml; for IL-4) in cRPMI before being stimulated for 20 hours with LPS (1 μg/ml) without removing the cytokines. At the end of incubation with cytokines and/or LPS, cells were loaded for 15 min with 15 μM DCFH-DA in cRPMI which, after passive penetration into cells, is hydrolyzed into nonfluorescent polar DCFH and trapped inside the cells. DCFH is then oxidized into highly fluorescent DCF according to the intracellular amount of hydrogen peroxide (H2O2) produced by the respiratory burst. After three washings with phosphate-buffered saline (PBS, pH 7.4), cells were lysed in 0.1% v/v Triton X100 (Sigma) in PBS, and fluorescence was quantified in a computerized microplate spectrofluorimeter (Packard Instruments, Downers Grove, Ill., USA) at 485 nm excitation/530 nm emission wavelengths. DCF concentrations were deduced from a standard curve of known concentrations of fluorescent DCF (ranging from 0.08 to 10 μM in lysis buffer) Results were corrected for total protein concentration determined in cell lysates by the bicinchoninic acid-based method (Pierce, Rockford, Ill., USA), and were expressed as nmoles DCF/mg cell protein.

ERK½ = ERK½ MAP kinase phosphorylation immunoblot in PBM; assay type: cell-based, human; settings: pretreatment before LPS 1 μg/ml; IL-9 20 ng/ml 24 hour; PD98059 1 hour
Method: PBM, isolated as described infra, were treated with 100 !M PD98059 (or with the same volume of DMSO as control) 1 hour before preincubation for 24 hour with medium or IL-9 (20 ng/ml). For the phosphoERK immunoblot assay (A), PBM were then stimulated by LPS (1 μg/ml) for the indicated periods of time (5 min to 20 hours) as compared to unstimulated cells (med), and processed for the detection of phosphorylated and total ERK½ as described in infra. For the oxidative burst (B), PBM were stimulated by LPS (1 μg/ml) for 20 hour and their oxidative capacity was evaluated through DCFH oxidation The results are presented in FIG. 7.
PBM were preincubated for 24 hour with medium alone (med) or IL-9, IL-4 or TGF-β1 (20 ng/ml), and stimulated by LPS (1 μg/ml) for the indicated periods of time (30 to 240 min). […]
PBM (1×10^6) were preincubated for 24 hour with medium alone or with cytokines (IL-9, IL-4 or TGF-β1 at 20 ng/ml) and stimulated from 5 min to 20 hour by 1 μg/ml LPS. […] Cell extracts (10 μg, as determined by the bicinchoninic acid-based assay) were subjected to SDS-12%PAGE, and electrotransferred onto a nitrocellulose membrane (Amersham) immunoblotted to detect and compare phosphorylated (threonine^202/tyrosine^204 residues) and total ERK½, using specific antibodies and enhanced chemiluminescence (New England Biolabs). […]

PMA-stimulated PBM = test: Extracellular O2- release, SOD-inhibitable reduction of ferricytochrome c; assay type: cell-based, human; settings: PMA as stimulus, preliminary experiments
Method: Extracellular release of O2-derived radicals was evaluated by the SOD-inhibitable reduction of ferricytochrome c, as previously described (Pick, Methods in Enzymology, 132:407-421 (1986)) as described infra.
Extracellular release of O2-derived radicals was evaluated by the SOD-inhibitable reduction of ferricytochrome c, as previously described (Pick, Methods in Enzymology, 132:407-421 (1986)). Briefly, after incubation with IL-9 and IL-4 (20 ng/ml) for 1 hour, 4 hour 24 hour and 96 hour, cells were washed three times in Hank's balanced salt solution without phenol red (HBSS) to remove the phenol red-containing medium and incubated at 37° C. with HBSS containing 160 μM ferricytochrome c (plus 300 IU/ml SOD as control for each condition), and concomittantly with 100 ng/ml PMA when indicated. Optical density (OD) at 550 nm was then recorded in a plate spectrometer (Titertek Multiscan Plus MKII, Labsystems, Finland) after 60 min. The released amount of superoxide anion (O2^−) was deduced from the absorbance values at 550 nm (after subtraction of control values with SOD) using the cytochrome c extinction coefficient of 21×10^3 M^−1 cm^−1 (See Massey, Biochim Biophys Acta, 34: 255(1959)). Results were expressed as nmoles O2^− per 10^6 cells per hour (FIG. 1).

LPS-stimulated PBM [2] = test: Intracellular oxidative burst, DCFH oxidation assay, PBM; assay type: cell-based, human; settings: PMA as stimulus, preliminary experiments
surface of PBM and AM = test: IL-9 binding assay with hIL-9-mIgG3 chimeric molecule by FACS; parameters: species or system human; settings: revealed by GAM3-FITC, compared with control
Method: To assess the IL-9 binding by PBM and AM, cells (0.2×10^6) were incubated with hIL-9-nIlgG3 chimeric protein and binding was assayed with GAM3-FITC. FIG. 4 is representative of five and three experiments for respectively IL-9R expression and IL-9 binding.
Binding of IL-9 to the surface of PBM and AM was assessed by incubating these cells (0.2×10^6) at 4° C. for 1 hour with hIL-9-mIgG3 chimeric molecule (10% COS cell supernatant). […] Cells incubated with mIgG3 before GAM3-FITC served as the negative control. FACS analysis of the cell-associated fluorescence was then performed as for the assessment of IL-9R expression.
Binding of IL-9 to the surface of PBM and AM was assessed by incubating these cells (0.2×10^6) at 4° C. for 1 hour with hIL-9-mIgG3 chimeric molecule (10%, v/v, COS cell supernatant). […] Cells incubated with mIgG3 before GAM3-FITC or only with GAM3-FITC served as negative controls. FACS analysis of the cell-associated fluorescence was then performed as for the assessment of IL-9R expression.

`COc1cccc(-c2cc(=O)c3ccccc3o2)c1N` [PD98059, reference compound] was tested, and the “effect on LPS-stimulated ROI production (oxidative burst) in monocytes” value (LPS-stimulated PBM [1]; PD98059 1 hour before preincubation, LPS 20 hour, DCFH oxidation) was “completely suppressed” and the “LPS-induced ERK½ phosphorylation in PBM” value (ERK½) was “prevented”.

With `CCCCCCCCCCCCCC(=O)O[C@@H]1[C@@H](C)[C@@]2(O)[C@@H](C=C(CO)C[C@]3(O)C(=O)C(C)=C[C@@H]23)[C@@H]2C(C)(C)[C@]12OC(C)=O` [PMA, phorbol myristate acetate, reference compound] the “cytochrome c reduction by PBM” value (PMA-stimulated PBM) was “strongly stimulated” and the “DCFH oxidation by PBM” value (LPS-stimulated PBM [2]) was “only a minor effect”.

In the case of “IL-9-mIgG3: human IL-9 fused to hinge, CH2 and CH3 domains of murine IgG3 heavy chain, COS cell supernatant”, the “binding of IL-9 on the surface of AM” value (surface of PBM and AM) is reported as “significant binding” and the “binding of IL-9 on the surface of PBM” value (surface of PBM and AM) is reported as “significant binding”.

For “TGF-β1: monocyte/macrophage deactivating factor, 20 ng/ml”, the “Oxidative burst (nmoles DCF/mg protein)” value (LPS-stimulated PBM [1]; Table 3, PBM, mAb 30 μg/ml 2 hour before IL-9 20 ng/ml 24 hour, LPS 1 μg/ml 20 h, means±SD, Medium 10.3 ± 0.2) was 10.2 ± 0.5 nmoles DCF/mg protein and the “LPS-stimulated oxidative burst in PBM” value (LPS-stimulated PBM [1]; preincubation 24 hour with cytokine 20 ng/ml, then LPS 1 μg/ml 20 hour, without IFN-γ) was 10.2±0.5 nmoles DCF/mg protein.
